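Where inhibition never reached the appropriate level, the endpoint shown equals the highest concentration tested. Otherwise, values were interpolated linearly from a five-concentration, 48-hour dose response in 96-well plates. At the GI50, growth is halved.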 Calls of active or inactive are those of the source. Rule as the data show it: active = GI50 up to about 1.1 µM and inactive = higher.
Assays:
Assay in all cases: DTP human tumour cell line panel, 48 h
[1] = test system: 786-0
[2] = test system: A549
[3] = test system: ACHN
[4] = test system: CAKI-1
[5] = test system: CCRF-CEM
[6] = test system: COLO 205
[7] = test system: DLD-1
[8] = test system: DMS-114
[9] = test system: DMS-273
[10] = test system: HCC 2998
[11] = test system: HCT-116
[12] = test system: HL-60
[13] = test system: HOP-18
[14] = test system: HOP-62
[15] = test system: HOP-92
[16] = test system: HT-29
[17] = test system: IGROV-1
[18] = test system: K562
[19] = test system: KM12
[20] = test system: LOX IMVI
[21] = test system: LXFL 529
[22] = test system: M14
[23] = test system: M19-MEL
[24] = test system: MOLT-4
[25] = test system: Malme-3M
[26] = test system: NCI-H23
[27] = test system: NCI-H460
[28] = test system: NCI-H522
[29] = test system: OVCAR-3
[30] = test system: OVCAR-4
[31] = test system: OVCAR-5
[32] = test system: OVCAR-8
[33] = test system: RXF 393
[34] = test system: RXF 631
[35] = test system: SF-268
[36] = test system: SF-295
[37] = test system: SF-539
[38] = test system: SK-MEL-28
[39] = test system: SK-MEL-5
[40] = test system: SN12C
[41] = test system: SNB-19
[42] = test system: SNB-75
[43] = test system: SNB-78
[44] = test system: SR
[45] = test system: SW-620
[46] = test system: TK-10
[47] = test system: U-251
[48] = test system: UACC-257
[49] = test system: UACC-62
[50] = test system: UO-31
[51] = test system: XF498
[52] = test system: A498
[53] = test system: EKVX
[54] = test system: HCT-15
[55] = test system: KM-20L2
[56] = test system: RPMI-8226
[57] = test system: SK-MEL-2
[58] = test system: SK-OV-3

Question: How did the GI50 [1] turn out when C=C(C(=C)N1N=NC2C3CCC(C3)C21)N1N=NC2C3CCC(C3)C21 (centres undefined) was run?
Answer: > 100 µM (inactive)

Question: And the GI50 [2]?
Answer: > 100 µM (inactive)

Question: What about the GI50 [3] of the same compound?
Answer: > 100 µM (inactive)

Question: What about the GI50 [4] of the same compound?
Answer: > 100 µM (inactive)

Question: And the GI50 [5]?
Answer: 24.9 µM (inactive)

Question: What about the GI50 [6] of the same compound?
Answer: > 100 µM (inactive)

Question: And the GI50 [7]?
Answer: > 100 µM (inactive)

Question: What about the GI50 [8] of the same compound?
Answer: > 100 µM (inactive)

Question: What about the GI50 [9] of the same compound?
Answer: > 100 µM (inactive)

Question: And the GI50 [10]?
Answer: > 100 µM (inactive)

Question: And the GI50 [11]?
Answer: > 100 µM (inactive)

Question: What about the GI50 [12] of the same compound?
Answer: 16.9 µM (inactive)

Question: And the GI50 [13]?
Answer: > 100 µM (inactive)

Question: And the GI50 [14]?
Answer: > 100 µM (inactive)

Question: What about the GI50 [15] of the same compound?
Answer: > 100 µM (inactive)

Question: What about the GI50 [16] of the same compound?
Answer: > 100 µM (inactive)

Question: What about the GI50 [17] of the same compound?
Answer: > 100 µM (inactive)

Question: What about the GI50 [18] of the same compound?
Answer: 65.2 µM (inactive)

Question: What about the GI50 [19] of the same compound?
Answer: > 100 µM (inactive)

Question: And the GI50 [20]?
Answer: 68.5 µM (inactive)

Question: And the GI50 [21]?
Answer: > 100 µM (inactive)

Question: And the GI50 [22]?
Answer: > 100 µM (inactive)

Question: And the GI50 [23]?
Answer: > 100 µM (inactive)

Question: And the GI50 [24]?
Answer: 41.1 µM (inactive)

Question: And the GI50 [25]?
Answer: > 100 µM (inactive)

Question: What about the GI50 [26] of the same compound?
Answer: > 100 µM (inactive)

Question: And the GI50 [27]?
Answer: > 100 µM (inactive)

Question: And the GI50 [28]?
Answer: 66.5 µM (inactive)

Question: What about the GI50 [29] of the same compound?
Answer: > 100 µM (inactive)

Question: And the GI50 [30]?
Answer: > 100 µM (inactive)

Question: And the GI50 [31]?
Answer: > 100 µM (inactive)

Question: And the GI50 [32]?
Answer: > 100 µM (inactive)

Question: And the GI50 [33]?
Answer: > 100 µM (inactive)

Question: What about the GI50 [34] of the same compound?
Answer: > 100 µM (inactive)

Question: What about the GI50 [35] of the same compound?
Answer: > 100 µM (inactive)

Question: What about the GI50 [36] of the same compound?
Answer: > 100 µM (inactive)

Question: What about the GI50 [37] of the same compound?
Answer: > 100 µM (inactive)

Question: And the GI50 [38]?
Answer: > 100 µM (inactive)

Question: And the GI50 [39]?
Answer: > 100 µM (inactive)

Question: And the GI50 [40]?
Answer: > 100 µM (inactive)

Question: And the GI50 [41]?
Answer: > 100 µM (inactive)

Question: What about the GI50 [42] of the same compound?
Answer: 55.1 µM (inactive)

Question: What about the GI50 [43] of the same compound?
Answer: > 100 µM (inactive)

Question: What about the GI50 [44] of the same compound?
Answer: 38.7 µM (inactive)

Question: What about the GI50 [45] of the same compound?
Answer: > 100 µM (inactive)

Question: What about the GI50 [46] of the same compound?
Answer: > 100 µM (inactive)

Question: And the GI50 [47]?
Answer: > 100 µM (inactive)

Question: And the GI50 [48]?
Answer: > 100 µM (inactive)

Question: What about the GI50 [49] of the same compound?
Answer: > 100 µM (inactive)

Question: What about the GI50 [50] of the same compound?
Answer: > 100 µM (inactive)

Question: What about the GI50 [51] of the same compound?
Answer: > 100 µM (inactive)

Question: Which GI50 [1] does the source give for Fc1ccc(C2SCc3nc4ccccc4n32)cc1F (centres undefined) here?
Answer: 55.3 µM (inactive)

Question: What about the GI50 [52] of the same compound?
Answer: 36.2 µM (inactive)

Question: What about the GI50 [2] of the same compound?
Answer: 33.6 µM (inactive)

Question: And the GI50 [3]?
Answer: 30 µM (inactive)

Question: And the GI50 [4]?
Answer: 43.1 µM (inactive)

Question: And the GI50 [5]?
Answer: 34.1 µM (inactive)

Question: What about the GI50 [6] of the same compound?
Answer: 27.6 µM (inactive)

Question: And the GI50 [7]?
Answer: 34.2 µM (inactive)

Question: What about the GI50 [8] of the same compound?
Answer: 18.1 µM (inactive)

Question: And the GI50 [9]?
Answer: 26.5 µM (inactive)

Question: And the GI50 [53]?
Answer: 39.2 µM (inactive)

Question: What about the GI50 [10] of the same compound?
Answer: 37.6 µM (inactive)

Question: And the GI50 [11]?
Answer: 26.8 µM (inactive)

Question: What about the GI50 [54] of the same compound?
Answer: 35.7 µM

Question: What about the GI50 [12] of the same compound?
Answer: 7.8 µM (inactive)

Question: And the GI50 [13]?
Answer: 60.4 µM (inactive)

Question: And the GI50 [14]?
Answer: 35.8 µM (inactive)

Question: And the GI50 [17]?
Answer: 33.5 µM (inactive)

Question: And the GI50 [18]?
Answer: 24.2 µM (inactive)

Question: And the GI50 [55]?
Answer: 55.5 µM (inactive)

Question: What about the GI50 [19] of the same compound?
Answer: 27.6 µM (inactive)

Question: And the GI50 [21]?
Answer: 23.4 µM (inactive)

Question: And the GI50 [22]?
Answer: 25.7 µM (inactive)

Question: What about the GI50 [23] of the same compound?
Answer: 28.6 µM (inactive)

Question: What about the GI50 [24] of the same compound?
Answer: 21.4 µM (inactive)

Question: What about the GI50 [25] of the same compound?
Answer: 25.9 µM (inactive)

Question: What about the GI50 [26] of the same compound?
Answer: 21.1 µM (inactive)

Question: And the GI50 [27]?
Answer: 37.4 µM (inactive)

Question: And the GI50 [28]?
Answer: 18.3 µM (inactive)

Question: What about the GI50 [29] of the same compound?
Answer: 26.9 µM (inactive)

Question: What about the GI50 [30] of the same compound?
Answer: 18.2 µM (inactive)

Question: And the GI50 [32]?
Answer: 33.8 µM (inactive)

Question: What about the GI50 [56] of the same compound?
Answer: 13.3 µM (inactive)

Question: And the GI50 [33]?
Answer: 24.2 µM (inactive)

Question: What about the GI50 [34] of the same compound?
Answer: 28.8 µM (inactive)

Question: And the GI50 [35]?
Answer: 50.4 µM (inactive)

Question: And the GI50 [36]?
Answer: 40.5 µM (inactive)

Question: What about the GI50 [37] of the same compound?
Answer: 34 µM (inactive)

Question: And the GI50 [38]?
Answer: 23.4 µM (inactive)

Question: What about the GI50 [57] of the same compound?
Answer: 23.8 µM (inactive)

Question: And the GI50 [39]?
Answer: 16.8 µM (inactive)

Question: And the GI50 [58]?
Answer: 46.5 µM (inactive)

Question: And the GI50 [40]?
Answer: 41.7 µM (inactive)

Question: And the GI50 [41]?
Answer: 29.6 µM (inactive)

Question: What about the GI50 [42] of the same compound?
Answer: 20.1 µM (inactive)

Question: What about the GI50 [43] of the same compound?
Answer: 32.2 µM (inactive)

Question: What about the GI50 [45] of the same compound?
Answer: 39.4 µM (inactive)

Question: And the GI50 [46]?
Answer: 26 µM (inactive)

Question: What about the GI50 [47] of the same compound?
Answer: 48.2 µM (inactive)

Question: And the GI50 [48]?
Answer: 42.1 µM (inactive)

Question: What about the GI50 [49] of the same compound?
Answer: 20.7 µM (inactive)

Question: And the GI50 [50]?
Answer: 13.6 µM (inactive)

Question: What about the GI50 [51] of the same compound?
Answer: 25.4 µM (inactive)
